According to PubChem BioAssay AID1963436 (Molecular Pharmacology Branch, DTP, NCI, 2024):
pIC50: −log10 of the molar value. Several values for one entry are separate records, joined by “and”; a condition that tells them apart may be missing. Identical values can stand only once.

Tested on: OVCAR-5 complex spheroid (HUVEC/MSC), viability % T/C
Test: Anticancer human tumor OVCAR-5 cell line growth inhibition [Asc];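 also: spheroids exposed to agents for 7 days before readout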;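 as to viability, T/C: 100% = DMSO vehicle-treated wells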
Conditions: for viability, T/C: stronger effect = lower value
How it was run: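 Spheroid model: tumor line + HUVEC + hMSC. Single agents and combinations; top conc. at/near clinical Cmax (10 microM if undetermined), half-log dilutions. DMSO stocks at 800-fold test concentration.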

[1] = curve of first compound, second compound 0.1 µM
[2] = curve of first compound, second compound 0.316 µM
[3] = curve of first compound, second compound 1 µM
[4] = second compound 0.1 µM, first compound 0.0316 µM
[5] = second compound 0.1 µM, first compound 0.1 µM
[6] = second compound 0.316 µM, first compound 0.0316 µM
[7] = second compound 0.316 µM, first compound 0.1 µM
[8] = second compound 1 µM, first compound 0.0316 µM
[9] = second compound 1 µM, first compound 0.1 µM

`C#Cc1c(F)ccc2cc(O)cc(-c3ncc4c(N5CC6CCC(C5)N6)nc(OCC56CCCN5CC(F)C6)nc4c3F)c12` (configuration not stated) + CNC(C)C(=O)NC1CN(S(=O)(=O)c2cccc(S(=O)(=O)N3CCC4CCC(C(=O)NC(c5ccccc5)c5ccccc5)N4C(=O)C(NC(=O)C(C)NC)C3)c2)CCC2CCC(C(=O)NC(c3ccccc3)c3ccccc3)N2C1=O was tested, and the pIC50 (curve of first compound, second compound 0.01 µM) was 5.16, the pIC50 (curve of first compound, second compound 0.0316 µM) was 5.21 and the pIC50 [1] was 5.29. It also gave a pIC50 [2] of 5.30, a pIC50 [3] of 5.29 and a viability, T/C (second compound 0.01 µM, first compound 0.0316 µM) of 97%. For the same compound, the viability, T/C (second compound 0.01 µM, first compound 0.1 µM) was 99.1%, the viability, T/C (second compound 0.01 µM, first compound 0.316 µM) was 95.8% and the viability, T/C (second compound 0.01 µM, first compound 1 µM) was 84.2%. The viability, T/C (second compound 0.01 µM, first compound 3.16 µM) was 70.8%, the viability, T/C (second compound 0.01 µM, first compound 10 µM) was 40.2% and the viability, T/C (second compound 0.0316 µM, first compound 0.0316 µM) was 90.2%. For the same compound, the viability, T/C (second compound 0.0316 µM, first compound 0.1 µM) was 88.1%, the viability, T/C (second compound 0.0316 µM, first compound 0.316 µM) was 91.8% and the viability, T/C (second compound 0.0316 µM, first compound 1 µM) was 68.5%. It also gave a viability, T/C (second compound 0.0316 µM, first compound 3.16 µM) of 66.5%, a viability, T/C (second compound 0.0316 µM, first compound 10 µM) of 40.3% and a viability, T/C [4] of 84.9%. It also gave a viability, T/C [5] of 89.5%, a viability, T/C (second compound 0.1 µM, first compound 0.316 µM) of 76.2% and a viability, T/C (second compound 0.1 µM, first compound 1 µM) of 64.8%. For the same compound, the viability, T/C (second compound 0.1 µM, first compound 3.16 µM) was 63.6%, the viability, T/C (second compound 0.1 µM, first compound 10 µM) was 37% and the viability, T/C [6] was 84.5%. The viability, T/C [7] was 84.2%, the viability, T/C (second compound 0.316 µM, first compound 0.316 µM) was 75.3% and the viability, T/C (second compound 0.316 µM, first compound 1 µM) was 65.9%. It also gave a viability, T/C (second compound 0.316 µM, first compound 3.16 µM) of 61.2%, a viability, T/C (second compound 0.316 µM, first compound 10 µM) of 37.8% and a viability, T/C [8] of 93.3%. It also gave a viability, T/C [9] of 95.2%, a viability, T/C (second compound 1 µM, first compound 0.316 µM) of 76.1% and a viability, T/C (second compound 1 µM, first compound 1 µM) of 71%. The viability, T/C (second compound 1 µM, first compound 3.16 µM) was 65% and the viability, T/C (second compound 1 µM, first compound 10 µM) was 35.2%.
For `C#Cc1c(F)ccc2cc(O)cc(-c3ncc4c(N5CC6CCC(C5)N6)nc(OCC56CCCN5CC(F)C6)nc4c3F)c12` (configuration not stated), the viability, T/C (compound 0.0316 µM) was 114% and 104% and 101%, the viability, T/C (compound 0.1 µM) was 112% and 100% and 106% and the viability, T/C (compound 0.316 µM) was 92.9% and 93.9% and 84.2%. The viability, T/C (compound 1 µM) was 80.5% and 88.2% and 96.8%, the viability, T/C (compound 3.16 µM) was 78.7% and 72.7% and 75% and the viability, T/C (compound 10 µM) was 40.5% and 39.1% and 39.3%. For the same compound, the pIC50 (curve of compound) was 5.12 and 5.16 and 5.15.
Work on `NC1CCC(NC2CC2c2ccccc2)CC1` (configuration not stated) + Cc1c(S(C)(=O)=O)c(-c2cc(F)cc(N3CCN(c4ccc(NS(=O)(=O)c5ccc(NC(CCN6CCC(C(=O)OCCCP(=O)(O)O)CC6)CSc6ccccc6)c(S(=O)(=O)C(F)(F)F)c5)cc4)CC3)c2)c(-c2ccc(Cl)cc2)n1C(C)C yielded a pIC50 [1] of less than 7.00, a pIC50 [2] of less than 7.00 and a pIC50 [3] of less than 7.00. The pIC50 (curve of first compound, second compound 3.16 µM) was less than 7.00, the pIC50 (curve of first compound, second compound 10 µM) was less than 7.00 and the viability, T/C (second compound 0.1 µM, first compound 0.000316 µM) was 86%. It also gave a viability, T/C (second compound 0.1 µM, first compound 0.001 µM) of 103%, a viability, T/C (second compound 0.1 µM, first compound 0.00316 µM) of 89.5% and a viability, T/C (second compound 0.1 µM, first compound 0.01 µM) of 94.1%. It also gave a viability, T/C [4] of 103%, a viability, T/C [5] of 92.3% and a viability, T/C (second compound 0.316 µM, first compound 0.000316 µM) of 87.9%. For the same compound, the viability, T/C (second compound 0.316 µM, first compound 0.001 µM) was 95.6%, the viability, T/C (second compound 0.316 µM, first compound 0.00316 µM) was 85% and the viability, T/C (second compound 0.316 µM, first compound 0.01 µM) was 81.9%. The viability, T/C [6] was 90.3%, the viability, T/C [7] was 93.1% and the viability, T/C (second compound 1 µM, first compound 0.000316 µM) was 94.7%. The viability, T/C (second compound 1 µM, first compound 0.001 µM) was 94.2%, the viability, T/C (second compound 1 µM, first compound 0.00316 µM) was 90.7% and the viability, T/C (second compound 1 µM, first compound 0.01 µM) was 81%. For the same compound, the viability, T/C [8] was 92.4%, the viability, T/C [9] was 86.3% and the viability, T/C (second compound 3.16 µM, first compound 0.000316 µM) was 94.9%. The viability, T/C (second compound 3.16 µM, first compound 0.001 µM) was 95.5%, the viability, T/C (second compound 3.16 µM, first compound 0.00316 µM) was 83.7% and the viability, T/C (second compound 3.16 µM, first compound 0.01 µM) was 76%. It also gave a viability, T/C (second compound 3.16 µM, first compound 0.0316 µM) of 93.2%, a viability, T/C (second compound 3.16 µM, first compound 0.1 µM) of 87.8% and a viability, T/C (second compound 10 µM, first compound 0.000316 µM) of 115%. For the same compound, the viability, T/C (second compound 10 µM, first compound 0.001 µM) was 110%, the viability, T/C (second compound 10 µM, first compound 0.00316 µM) was 120% and the viability, T/C (second compound 10 µM, first compound 0.01 µM) was 107%. The viability, T/C (second compound 10 µM, first compound 0.0316 µM) was 104% and the viability, T/C (second compound 10 µM, first compound 0.1 µM) was 112%.
